Experimental data from patent US12410124B2 (priority 2019, dated 2025).

Legend:
Format in all cases: in vivo
midbrain TH = assay: Midbrain TH expression in MPTP Parkinson's disease model mouse (western-blotting); details: midbrain total protein, GAPDH internal reference, gavage 21 days after MPTP modeling
substantia nigra TH = assay: Substantia nigra TH expression in MPTP Parkinson's disease model mouse (immunofluorescence); details: percentage of mean intensity of blank control group, gavage 21 days after MPTP modeling
substantia nigra pp38 = assay: Substantia nigra pp38 protein expression in MPTP Parkinson's disease model mouse (immunofluorescence); details: percentage of mean intensity of blank control group, gavage 21 days after MPTP modeling
midbrain CD11b = assay: Midbrain CD11b protein expression in MPTP Parkinson's disease model mouse (western-blotting); details: midbrain, MPTP Parkinson's disease model mouse, western-blotting
substantia nigra CD11b = assay: Number of substantia nigra microglial cells with CD11b positive expression in MPTP Parkinson's disease model mouse (immunohistochemistry); details: substantia nigra, MPTP Parkinson's disease model mouse, immunohistochemistry
hippocampus CD11b = assay: Number of hippocampus microglial cells with CD11b positive expression in MPTP Parkinson's disease model mouse (immunohistochemistry); details: hippocampus, MPTP Parkinson's disease model mouse, immunohistochemistry
hippocampus GFAP = assay: Number of hippocampus astrocytes with GFAP positive expression in MPTP Parkinson's disease model mouse (immunohistochemistry); details: hippocampus, MPTP Parkinson's disease model mouse, immunohistochemistry

SMILES | Expression (TH/GAPDH) (midbrain TH) | Expression (Immunofluorescence intensity %) (substantia nigra TH) [%] | Expression (Immunofluorescence intensity %) (substantia nigra pp38) [%] | Expression (CD11b/GAPDH) (midbrain CD11b) | Positive cell number (microglial cells with CD11b positive expression) (substantia nigra CD11b) | Positive cell number (microglial cells with CD11b positive expression) (hippocampus CD11b) | Positive cell number (astrocytes with GFAP positive expression) (hippocampus GFAP)
CC(=O)Oc1ccc(/C=C/S(=O)(=O)Cc2c(F)c(F)c(F)c(F)c2F)cc1OC(=O)NC(=O)c1ccc([N+](=O)[O-])c(C)c1 [Compound D5-4, (E)-2-[N-(3-methyl-4-nitrobenzoyl)carbamoyloxy]-4-{2-[(perfluorophenyl)mesyl]ethenyl}phenyl acetate] | 1.19 ± 0.05 | 99.86 ± 6.27 | 103.25 ± 15.27 | 1.11 ± 0.10 | 41 ± 3 | 12 ± 2 | 59 ± 3
CC(C)N(c1ccc(CCS(=O)(=O)/C=C/c2ccc(OC(=O)N(C)c3ccc(I)cc3)c(OCCOCc3ccccc3)c2)cc1)C(C)C [Compound A1-3, (E)-2-(2-benzyloxyethoxy)-4-{2-[4-(N,N-diisopropylamino)phenylethylsulfonyl]ethenyl}phenyl-N-(4-iodophenyl)-N-methylcarbamate] | 0.93 ± 0.07 | 89.68 ± 5.69 | 58.19 ± 12.07 | 1.12 ± 0.06 | 38 ± 4 | 14 ± 2 | 55 ± 3
Cc1ccc(N2CCN(C(=O)Oc3ccc(/C=C/S(=O)(=O)CCCC(c4ccc(OC(=O)CN(C)C)cc4)N(C)C)cc3OC(=O)N(C)c3ccccc3)CC2)cc1 (stereo not shown) [Compound P1-1, (E)-4-{2-[4-(dimethylamino)-4-(4-(N,N-dimethylglycyloxy)phenyl)butylsulfonyl]ethenyl}-2-(N-methyl-N-phenylcarbamoyloxy)phenyl-4-(p-methylphenyl)piperazine-1-carboxylate] | 0.88 ± 0.04 | 88.13 ± 3.43 | 99.55 ± 8.46 | 0.70 ± 0.06 | 26 ± 3 | 7 ± 2 | 72 ± 3
CNC(=O)Oc1ccc(/C=C/S(=O)(=O)CC(Cl)c2ccc(Cl)c([N+](=O)[O-])c2)cc1O (stereo not shown) [Compound E2-2, (E)-4-{2-[2-chloro-2-(4-chloro-3-nitrophenyl)ethylsulfonyl]ethenyl}-2-hydroxyphenyl-N-methylcarbamate] | 0.97 ± 0.03 | 93.12 ± 4.56 | 96.01 ± 10.37 | 1.17 ± 0.06 | 40 ± 5 | 15 ± 2 | 50 ± 5
O=S(=O)(/C=C/c1ccc(O)c(O)c1)CCCc1ccccc1 [Compound 3C, (E)-4-{2-[(3-phenylpropyl)sulfonyl]ethenyl}benzene-1,2-diol, reference compound] | 0.63 ± 0.03 | 74.63 ± 9.15 | 138.79 ± 27.44 | 1.02 ± 0.13 | 70 ± 6 | 20 ± 3 | 147 ± 4
O=S(=O)(/C=C/c1ccc(O)c(O)c1)Cc1ccc(Cl)cc1 [Compound 3D, (E)-4-{2-[(4-chlorophenyl)mesyl]ethenyl}benzene-1,2-diol, reference compound] | 0.93 ± 0.06 | 87.38 ± 4.01 | 114.68 ± 21.42 | 1.30 ± 0.10 | 39 ± 4 | 18 ± 3 | 106 ± 6
CCOC(CS(=O)(=O)/C=C/c1ccc(OC(C)=O)c(OC(=O)Nc2ccc(NC)cc2)c1)C(OCC)c1ccc(OCc2ccccc2)c(O)c1 (stereo not shown) [Compound H2-4, (E)-4-{2-[3-(4-benzyloxy-3-hydroxyphenyl)-2,3-diethoxypropyl]sulfonylethenyl}-2-[N-(4-methylaminophenyl)carbamoyloxy]phenyl acetate] | 1.02 ± 0.04 | 95.20 ± 6.06 | 103.17 ± 12.58 | 0.69 ± 0.04 | 29 ± 4 | 7 ± 1 | 61 ± 5
